Measurements: patent US20130323167A1, “DETECTING AND TREATING SOLID TUMORS THROUGH SELECTIVE DISRUPTION OF TUMOR VASCULATURE” (THE JOHNS HOPKINS UNIVERSITY, priority 2010, published 2013)

How the values were obtained:
subcutaneous CT26 tumors = assay type: in vivo, BALB/c mice; conditions: injection of the agent instead of TNF-α
Description: All animal experiments were overseen and approved by the Animal Welfare Committee of Johns Hopkins University, and were in compliance with the University standards. For the subcutaneous tumor model, female, six to eight week-old BALB/c mice (Harlan Breeders) were used. Five million CT26 cells were injected subcutaneously into the right flank of each mouse and allowed to grow for ˜10 days before randomization, group assignment, and treatment. C. novyi-NT spores were administered by a bolus tail vein injection of 300 million spores suspended in 0.2 mL of phosphate buffered saline, pH 7.5 (PBS). Cytotoxic anticancer agents were administered 16 hours later via the same route. TNF-α was reconstituted freshly before administration in doubly-distilled H2O at 100 ng/mL and diluted into 0.1% (w/v) BSA in PBS at a final concentration of 10 ng/mL. Cytotoxic agents were injected within a few minutes thereafter. Tumor volume was calculated as […]. For the orthotopic brain tumor model, female C57BL6 mice, 5-6 weeks of age, were purchased from the NCI-Frederick. […] Animals were monitored for potential side effects following drug administration. […]

CT26 tumors = assay: Treatment of fully developed subcutaneous CT26 tumors (tumor volume, survival); assay type: in vivo, BALB/c mice; conditions: TNF-α 25 ng/kg combined with Doxil or ^131I-labeled IgG
Description: For the subcutaneous tumor model, female, six to eight week-old BALB/c mice (Harlan Breeders) were used. Five million CT26 cells were injected subcutaneously into the right flank of each mouse and allowed to grow for ˜10 days before randomization, group assignment, and treatment. C. novyi-NT spores were administered by a bolus tail vein injection of 300 million spores suspended in 0.2 mL of phosphate buffered saline, pH 7.5 (PBS). Cytotoxic anticancer agents were administered 16 hours later via the same route. TNF-α was reconstituted freshly before administration in doubly-distilled H2O at 100 ng/mL and diluted into 0.1% (w/v) BSA in PBS at a final concentration of 10 ng/mL. Cytotoxic agents were injected within a few minutes thereafter. Tumor volume was calculated as length×width×0.5.

[1] = multiple injections (3 infusions/week) of a dose comparable to the highest mouse dose; cited from earlier work

Molecule | induction of E^2PR by microtubule-interacting agent (subcutaneous CT26 tumors) | cures and survival at lower dose of TNF-α (CT26 tumors) | tolerability in humans [1]
COc1ccc(/C=C\c2cc(OC)c(OC)c(OC)c2)cc1OP(=O)(O)O [Combretastatin A4P, combretastatin A4 phosphate] | resulted in E^2PR, though not as impressively as TNF-α | – | –
CCC1=C[C@@H]2CN(C1)Cc1c([nH]c3ccccc13)[C@@](C(=O)OC)(c1cc3c(cc1OC)N(C)[C@H]1[C@@](O)(C(=O)OC)[C@H](OC(C)=O)[C@]4(CC)C=CCN5CC[C@]31[C@@H]54)C2 [vinorelbine] | resulted in E^2PR, though not as impressively as TNF-α | – | –
TNF-α | – | none of the treated animals were cured, although prolonged survival was observed | tolerate
